{"source": "paper PMC7300217", "about": "“Surfactin Like Broad Spectrum Antimicrobial Lipopeptide Co-produced With Sublancin From Bacillus subtilis Strain A52: Dual Reservoir of Bioactives” (Frontiers in Microbiology, 2020)", "assay_in_all_cases": "MIC, microtiter plate dilution assay", "assay_type_in_all_cases": "cell-based", "key": {"[1]": {"tested_on": "C. tropicalis 420024 (clinical isolate)", "conditions": "5 × 10^5 CFU/ml, 37°C, OD600 after 48 h, triplicate", "description": "(§1) The antimicrobial activity was tested by well diffusion assay as mentioned earlier ([Singh et al., 2014]). Strain A52 was grown for 24 h in 500 ml of nutrient broth (NB, Hi-media, India) using 1000 ml flask and subsequently cells were removed by centrifugation (10,000 rpm for 15 min at 4°C). Supernatant was filtered through 0.22 μm filter (Millipore, United States) to obtain cell-free fermented broth (CFB) that was used for antimicrobial assay (50 μl) against various indicator strains and the activity was measured as diameter of inhibition zone. Test strains used were Staphylococcus aureus (MTCC 1430), Bacillus subtilis (MTCC 121), B. firmus (MTCC 488), B. licheniformis (MTCC 429), B. thuringiensis (MTCC 1953), Escherichia coli (MTCC 1610), Micrococcus luteus (MTCC 106), Steptococcus pyrogens (MTCC 1928), S. anginosus (MTCC 1929), S. oralis (MTCC 2696), S. mutans (MTCC 497), Candida albicans (MTCC 1637), C. albicans (MTCC 183), C. albicans (MTCC 227), C. tropicalis (MTCC 184), C. glabrata (MTCC 3019), C. haemulonii (MTCC 2766), and C. inconsplicue (MTCC 1074). The phytopathogenic fungi employed in this study were Alternaria brassicicola (MTCC 2102), Colletotrichum acutatum (MTCC 1037), and Fusarium moniliforme (MTCC 158). Clinical isolates of Candida were provided by National Culture Collection of Pathogenic Fungi (NCCPF), PGIMER, Chandigarh, India.\n(§2) The minimum inhibitory concentration (MIC) of HPLC purified peptides was evaluated by using microtiter plate dilution assay. The peptide concentration was estimated using BCA protein assay (Thermo Fisher Scientific, United States) method as described by manufacturer. Actively growing test strains (5 × 10^5 CFU/ml) were inoculated in a 96-well plate with different concentrations of the peptides and plates were incubated for 24–48 h at 37°C (final volume in each well is 200 μl). OD was measured at 600 nm after 24 and 48 h for bacteria and yeast, respectively, using ELISA microplate reader (Thermo, United States). MIC against phytopathogenic fungi was determined using 96-well microtiter plate assay ([Kaur et al., 2016]). In 96-well microplates, 100 μl of fungal spore suspension (1 × 10^5 spores/ml) prepared in potato dextrose broth (PDB, Hi-media, India) was mixed with100 μl of fresh PDB containing different concentrations of lipopeptide. Control well contained 100 μl of fungal spore suspension and 100 μl of only medium. The microplates were incubated at 25°C and readings were recorded at 600 nm after 48 h. The lowest concentration showing no growth was considered as MIC. Each test was done in triplicate and optical density (OD600) of peptide treated wells were compared with uninoculated wells (blank medium control)."}, "S. oralis MTCC 2696": {"tested_on": "S. oralis MTCC 2696", "conditions": "5 × 10^5 CFU/ml, 37°C, OD600 after 24 h, triplicate", "description": "as §1, §2"}, "[2]": {"tested_on": "C. rugos 470141 (clinical isolate)", "conditions": "5 × 10^5 CFU/ml, 37°C, OD600 after 48 h, triplicate", "description": "as §1, §2"}, "[3]": {"tested_on": "C. parasilosis 450030 (clinical isolate)", "conditions": "5 × 10^5 CFU/ml, 37°C, OD600 after 48 h, triplicate", "description": "as §1, §2"}, "S. mutans MTCC 497": {"tested_on": "S. mutans MTCC 497", "conditions": "5 × 10^5 CFU/ml, 37°C, OD600 after 24 h, triplicate", "description": "as §1, §2"}, "C. glabrata MTCC 3019": {"tested_on": "C. glabrata MTCC 3019", "conditions": "5 × 10^5 CFU/ml, 37°C, OD600 after 48 h, triplicate", "description": "as §1, §2"}, "[4]": {"tested_on": "C. kefyr 410004 (clinical isolate)", "conditions": "5 × 10^5 CFU/ml, 37°C, OD600 after 48 h, triplicate", "description": "as §1, §2"}, "[5]": {"tested_on": "C. krusei 440009 (clinical isolate)", "conditions": "5 × 10^5 CFU/ml, 37°C, OD600 after 48 h, triplicate", "description": "as §1, §2"}, "C. haemulonii MTCC 2766": {"tested_on": "C. haemulonii MTCC 2766", "conditions": "5 × 10^5 CFU/ml, 37°C, OD600 after 48 h, triplicate", "description": "as §1, §2"}}}
{"substance": "Glu^1-Leu/Ile^2-Leu^3-Val^4-Asp^5-Leu^6-Leu/Ile^7 and a β-OH hexadecane fatty acid chain (lariat or depsi) [Lipopeptide A52, cyclic surfactin-like lipopeptide, 7 amino acids and C16 β-hydroxy fatty acid, 1061.9 Da, from B. subtilis strain A52]", "values": [{"measurement": "MIC value, C. tropicalis 420024", "setting": "[1]", "result": 28, "unit": "µg/mL"}, {"measurement": "MIC value, S. oralis MTCC 2696", "setting": "S. oralis MTCC 2696", "result": 4, "unit": "µg/mL"}, {"measurement": "MIC value, C. rugos 470141", "setting": "[2]", "result": 16, "unit": "µg/mL"}, {"measurement": "MIC value, C. parasilosis 450030", "setting": "[3]", "result": 28, "unit": "µg/mL"}, {"measurement": "MIC value, S. mutans MTCC 497", "setting": "S. mutans MTCC 497", "result": 6, "unit": "µg/mL"}, {"measurement": "MIC value, C. glabrata MTCC 3019", "setting": "C. glabrata MTCC 3019", "result": 16, "unit": "µg/mL"}, {"measurement": "MIC value, C. kefyr 410004", "setting": "[4]", "result": 26, "unit": "µg/mL"}, {"measurement": "MIC value, C. krusei 440009", "setting": "[5]", "result": 12, "unit": "µg/mL"}, {"measurement": "MIC value, C. haemulonii MTCC 2766", "setting": "C. haemulonii MTCC 2766", "result": 20, "unit": "µg/mL"}]}
